In patent US5395841A, “4-benzylpiperidines for treating phychosis” (Ferrer Internacional, S.A., priority 1992, dated 1995):
Counter-ions that a name gives are not always drawn.

The compounds below were run against sigma-receptor (Cavia porcellus, UniProt Q60492) (assay: Sigma-receptor binding ([3H]3-PPP displacement, membranes of guinea pig total brain)). Conditions: 2 nM (+)[3H]3-PPP, guinea pig total brain membrane, 90 min at 25° C., pH 8.5 TRIS.HCl, eleven concentrations; read-out: IC50 (inhibitory concentration 50%).
Sequence of sigma-receptor (Q60492 whole entry): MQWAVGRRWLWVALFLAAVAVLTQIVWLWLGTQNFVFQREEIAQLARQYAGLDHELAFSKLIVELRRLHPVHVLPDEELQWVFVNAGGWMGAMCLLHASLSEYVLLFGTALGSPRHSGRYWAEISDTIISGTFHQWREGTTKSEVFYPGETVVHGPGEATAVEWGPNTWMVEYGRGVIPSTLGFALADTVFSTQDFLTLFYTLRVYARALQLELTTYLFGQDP

Structure (SMILES)	IC50 [nM]
OC(CCCN1CCC(Cc2ccc(F)cc2)CC1)c1ccc(F)cc1 (centres unmarked) [Example 7, 4-(p-Fluorobenzyl)-1-(4-fluorophenyl-4-hydroxy)butylpiperidine hydrochloride]	8.8
Fc1ccc(CC2CCN(CCCOc3ccc(F)cc3)CC2)cc1 [Example 8, 4-(p-Fluorobenzyl)-1-[3-(p-fluorophenoxy)propyl]piperidine dibenzoate]	4.5
Fc1ccc(CC2CCN(CCCC(c3ccc(F)cc3)c3ccc(F)cc3)CC2)cc1 [Example 9, 4-(p-Fluorobenzyl)-1-[4,4-bis(p-fluorophenyl)butyl]piperidine tribenzoate]	72

Now those with a lower IC50, led by results:

IC50 [nM]	Structure (SMILES)
4.2	Fc1ccc(CC2CCN(CCCOc3ccc(F)cc3)CC2)cc1 [Example 11, 4-(p-Fluorobenzyl)-1-[3-(p-fluorophenoxy)propyl]piperidine hydrochloride]
2.95	CCCN1CCC(Cc2ccc(F)cc2)CC1 [Example 1, 4-p-Fluorobenzyl-1-propylpiperidine hydrochloride]
2.4	O=C(CCCN1CCC(Cc2ccc(F)cc2)CC1)c1ccc(F)cc1 [Example 5, 4-p-Fluorobenzyl-1-(4-p-fluorophenyl-4-oxo)butylpiperidine hydrochloride]
1.89	O=C1CC2(CCCC2)CC(=O)N1CCCCN1CCC(Cc2ccc(F)cc2)CC1 [Example 10, 8-[4-[4-(p-Fluorobenzyl)-1-piperidinyl]butyl]-8-azaspiro[4,5] decane-7,9-dione hydrochloride]
1.49	OC(CCCN1CCC(Cc2ccccc2)CC1)c1ccc(F)cc1 (centres unmarked) [Example 6, 4-Benzyl-1-(4-hydroxi-4-p-fluorophenyl)butylpiperidine hydrochloride]
